Data reported in patent US9211349B2, “Molecular probes for multimodality imaging of anionic membrane surfaces” (Molecular Targeting Technologies, Inc., priority 2012, dated 2015).

System: U87MG cells
Assay: MTT assay, cytotoxicity of paclitaxel on U87MG cells
Assay type: cell-based, human
Method: A U87MG human glioblastoma cell line was obtained from the American Type Culture Collection (Manassas, Va., USA). U87MG glioma cells were grown in Dulbecco's modified medium (USC Cell Culture Core, Los Angeles, Calif., USA) supplemented with 10% fetal bovine serum at 37° C. in humidified atmosphere containing 5% CO2.
The toxicity of paclitaxel to U87MG cells was determined by a colorimetric assay with 3-(4,5-dimethylthiazol-2-yl)-2,5-diphenyl tetrazolium bromide (MTT; Alfa Aesar). All studies were performed with triplicate samples and repeated at least three times. Briefly, cells were harvested by trypsinization, resuspended in Dulbecco's modified medium, and plated in a 96-well plate at 4,000 cells per well. After treatment with different doses of paclitaxel (ranging from 1 nM to 500 nM) for 16 hours, 22 μL of 0.5 mg/mL sterile filtered MTT was added to each well. The un-reacted dye was removed after 4 hours of incubation, and the insoluble formazan crystals were dissolved in 150 μL of DMSO. The absorbance at 490 nm was measured with a microplate reader (SpectraMax M2e, Molecular Devices, CA).
FIG. 3 is a graph illustrating cytotoxicity of paclitaxel on U87MG cells determined by MTT assay. The best-fit 50% inhibitory concentration (IC50) values were calculated by fitting the data with nonlinear regression using Graph-Pad Prism 5.0 (Graph-Pad Software, San Diego, Calif.).

SMILES: CC(=O)O[C@H]1C(=O)[C@@]2(C)[C@H]([C@H](OC(=O)c3ccccc3)[C@]3(O)C[C@H](OC(=O)[C@H](O)[C@@H](NC(=O)c4ccccc4)c4ccccc4)C(C)=C1C3(C)C)[C@]1(OC(C)=O)CO[C@@H]1C[C@@H]2O [paclitaxel]
- sensitivity of U87MG cells to treatment (1 nM to 500 nM, 16 hours): sensitive
- IC50 (Homo sapiens, U-87 MG, after 16 hours of incubation): 61.4 nM
